{"source": "patent US10281267B2", "about": "“Method for evaluating flow of skin, method for examining skin glow improvers, and skin glow improver” (Shiseido Company, Ltd., priority 2014, dated 2019)", "key": {"horny layer cells [1]": {"tested_on": "horny layer cells", "experiment": "Screening of specular reflectance improvers: arithmetic average roughness (Sa) of exfoliated horny layer cells by AFM", "assay_type": "cell-based", "conditions": "for screening result: specular reflectance improver: 100 μl sample on horny layer cells, 30 minutes at 37° C., nine types of cosmetic ingredients screened", "from_the_text": "The surface roughness of skin can be determined by measuring the surface of horny layer cells sampled with a strip of adhesive tape and the like using a microscope such as an atomic force microscope. Surface roughness can be calculated in terms of arithmetic average roughness (Sa) as defined in ISO25178 by acquiring 3D-scanned images captured using an atomic force microscope, correcting the inclination of the 3D shape by subtracting those images applicable to a Gaussian filter having a half width of 2 μm, displaying the images, and calculating the average of absolute values of the Z axis for each XY coordinate.\nFirst, the arithmetic average roughness (Sa) of horny layer cells is measured (S11). Next, a sample is applied to the horny layer cells (S12). Then, the arithmetic average roughness (Sa) of the horny layer cells to which the sample has been applied is measured (S13). Next, the rate of decrease of the arithmetic average roughness (Sa) of the horny layer cells to which the sample was applied is determined relative to the arithmetic average roughness of the horny layer cells to which the sample was not applied (S14).\nOn the other hand, horny layer cells were exfoliated from the cheeks of the subjects using adhesive strips (Post-It®, 3M Corp.). Next, double-sided adhesive tape was adhered to a slide glass and the exfoliated horny layer cells were transferred to the slide glass. Moreover, the arithmetic average roughness (Sa) of five horny layer cells was measured using an AFM attached to the Optelics H1200A 3CCD real color confocal microscope (Lasertec Corp.) followed by determination of the average value thereof.\nHorny layer cells were exfoliated from the cheeks of subjects using adhesive strips (Post-It®, 3M Corp.). Next, double-sided adhesive tape was adhered to a slide glass and the exfoliated horny layer cells were transferred to the slide glass. Moreover, the arithmetic average roughness (Sa) of five horny layer cells was measured using an AFM attached to the Optelics H1200A 3CCD real color confocal microscope (Lasertec Corp.) followed by determination of the average value thereof. Next, 100 μl of a candidate sample were dropped onto the horny layer cells followed by incubating for 30 minutes at 37° C. Moreover, arithmetic average roughness (Sa) of the aforementioned five horny layer cells was then measured in the same manner followed by determination of the average value thereof."}, "horny layer cells [2]": {"tested_on": "horny layer cells", "experiment": "Screening of specular reflectance improvers: arithmetic average roughness (Sa) of exfoliated horny layer cells by AFM", "assay_type": "cell-based", "conditions": "trimethylglycine alone"}}, "note": "Entries after “also recorded” stand apart in the source; their conditions may differ."}
{"smiles": "O=C(O)CO", "note": "[glycolic acid]", "values": [{"measurement": "screening result: specular reflectance improver", "setting": "horny layer cells [1]", "value": "determined to be specular reflectance improvers"}, {"measurement": "arithmetic average roughness (Sa) of horny layer cells", "setting": "horny layer cells [1]; concentration 4% by weight to 40% by weight, FIG. 20", "value": "decreases significantly"}]}
{"smiles": "COc1ccc(C(=O)[O-])c(O)c1.[K+]", "note": "[potassium 4-methoxysalicylate]", "values": [{"measurement": "rate of decrease of arithmetic average roughness (Sa) of horny layer cells", "setting": "horny layer cells [1]; 4-MSK at 0, 0.1, 1.0, 3.0 and 10.0% by weight, FIG. 8", "value": "dose-dependent increase in the rate of decrease of arithmetic average roughness (Sa) up to 3.0% by weight"}, {"measurement": "screening result: specular reflectance improver", "setting": "horny layer cells [1]", "value": "determined to be specular reflectance improvers"}, {"measurement": "arithmetic average roughness (Sa) of horny layer cells", "setting": "horny layer cells [1]; concentration 3% by weight to 10% by weight, FIG. 13", "value": "decreases significantly"}]}
{"smiles": "O=C([O-])c1ccccc1O.[Na+]", "note": "[sodium salicylate, sodium 2-hydroxybenzoate]", "values": [{"measurement": "screening result: specular reflectance improver", "setting": "horny layer cells [1]", "value": "determined to be specular reflectance improvers"}]}
{"smiles": "C[N+](C)(C)CC(=O)[O-]", "note": "[trimethylglycine]", "values": [{"measurement": "specular reflectance of the skin", "setting": "horny layer cells [2]", "value": "confirmed to not be improved"}, {"measurement": "rate of decrease of arithmetic average roughness (Sa) of horny layer cells", "setting": "horny layer cells [1]; TMG alone at 0, 5 and 10% by weight, FIG. 9", "value": "does not have the effect of smoothing the horny layer or improving skin glow; also recorded: no differences in the rates of decrease of arithmetic average roughness (Sa); also recorded: did not have an effect on the rate of decrease of Sa"}]}
